Measured values taken from patent publication US9115159B2, “Phosphate compounds, a process for their preparation and pharmaceutical compositions containing them” (LES LABORATOIRES SERVIER, priority 2013, dated 2015).
“And” between values parts separate entries of the source, which are not always exact repeats. Equal entries are not always repeated.

Key:
[1] = Solubility in aqueous medium buffered to physiological pH (phosphate 0.33M, pH 7.4); type: physicochemical; conditions: phosphate 0.33M, pH = 7.4
Protocol: (§1) The solubilities of the compounds were also measured in a medium buffered to physiological pH (cf. Table 3).

[2] = Pharmacokinetic profile in the Wistar rat, lipid versus aqueous formulation; type: in vivo, male Wistar rats; conditions: Drug from Example 1 administered 100 mg/kg p.o., plasma
Protocol: The pharmacokinetic profile of N-(4-hydroxyphenyl)-3-{6-[((3S)-3-(4-morpholinyl-methyl)-3,4-dihydro-2(1H)-isoquinolinyl)carbonyl]-1,3-benzodioxol-5-yl}-N-phenyl-5,6,7,8-tetrahydro-1-indolizine carboxamide (also referred to as the drug from Example 1) is also evaluated in a lipid and aqueous formulation in the Wistar rat.
The drug from Example 1 is prepared in an aqueous suspension in hydroxyethylcellulose 1% (w/v) in water and compared to a lipid formulation composed of a mixture of anhydrous ethanol/polyethylene glycol 400/Phosal 50PG ([…], v/v/v). The two formulations are administered by the oral route to male Wistar rats (3 rats per formulation) at a dose of 100 mg/kg p.o. (gavage, 10 mL/kg).
Blood samples are taken at the following points in time from each animal (3 animals/point in time): 0.25 hr, 0.5 hr, 0.75 hr, 1 hr, 2 hrs, 4 hrs, 8 hrs and 24 hrs after oral administration.
The plasma concentrations of the tested compound are determined after extraction followed by liquid chromatography coupled with mass spectrometric detection. The limit of quantification is 0.1 ng/mL.

[3] = Solubility in water; type: physicochemical
Protocol: The solubility of compounds of formula (I) in water was measured and compared with that of compounds of formula (I′).
More specifically, 4-[{[3-(6-{[(3S)-3-(morpholin-4-ylmethyl)-3,4-dihydroisoquinolin-2(1H)-yl]carbonyl}-1,3-benzodioxol-5-yl)-5,6,7,8-tetrahydroindolizin-1-yl]carbonyl}-(phenyl)amino]phenyl disodium phosphate (also referred to as the compound of Example 1) was tested and compared to N-(4-hydroxyphenyl)-3-{6-[((3S)-3-(4-morpholinylmethyl)-3,4-dihydro-2(1H)-isoquinolinyl)carbonyl]-1,3-benzodioxol-5-yl}-N-phenyl-5,6,7,8-tetrahydro-1-indolizine carboxamide (also referred to as the drug from Example 1).
as §1

[4] = aqueous formulation (suspension in hydroxyethylcellulose 1% in water)
[5] = lipid formulation (anhydrous ethanol/polyethylene glycol 400/Phosal 50PG)

Solubility at 10 μM ([1]; 10 μM): Insoluble
Solubility at 20 μM ([1]; 20 μM): Insoluble
Solubility at 50 μM ([1]; 50 μM): Insoluble
Solubility at 100 μM ([1]; 100 μM): Insoluble
AUCt, compound measured: Drug from Example 1 [2, 4]: AUCt (ng · h/mL) = 3480
Cmax, compound measured: Drug from Example 1 [2, 4]: Cmax (ng/mL) = 816
AUCt, compound measured: Drug from Example 1 [2, 5]: AUCt (ng · h/mL) = 42900
Cmax, compound measured: Drug from Example 1 [2, 5]: Cmax (ng/mL) = 5070
solubility [3]: 40 µg/mL and 56.2 µM
SMILES: O=C(c1cc(-c2cc3c(cc2C(=O)N2Cc4ccccc4C[C@H]2CN2CCOCC2)OCO3)n2c1CCCC2)N(c1ccccc1)c1ccc(O)cc1 [Drug from Example 1, N-(4-hydroxyphenyl)-3-{6-[((3S)-3-(4-morpholinylmethyl)-3,4-dihydro-2(1H)-isoquinolinyl)carbonyl]-1,3-benzodioxol-5-yl}-N-phenyl-5,6,7,8-tetrahydro-1-indolizine carboxamide]
